Assay results from paper PMC6930649, “Four New Iridoid Metabolites Have Been Isolated from the Stems of Neonauclea reticulata (Havil.) Merr. with Anti-Inflammatory Activities on LPS-Induced RAW264.7 Cells” (Molecules, 2019).
≈ marks a conversion by molar mass, not a printed value.

Experiments:
[1] = Cell viability assay (MTT) in RAW264.7 cells; type: cell-based; settings: mouse, RAW264.7 macrophage cells, 6.25-100 μg/mL, LPS 100 ng/mL, mean ± SD of three independent experiments
Method: (§1) RAW264.7 the mouse macrophages cell line (Bioresource Collection and Research Center (BCRC) Number: 60001) was obtained from Food Industry Research and Development Institute (Hsinchu, Taiwan). All of the cell lines were cultured in DMEM containing 10% (v:v) fetal bovine serum (FBS), penicillin and streptomycin (100 U/mL), 4 mM L-glutamine (100 U/mL). The cells were cultured in a humidified incubator under 5% CO2 at 37 °C. The RAW264.7 cells (5 × 10^5 cells per mL) were seeded into plates for 24 h before treatment.
(§2) The in-vitro cell viability activity of MeOH extracts, partition fractions and pure compounds were determined by the MTT assay. RAW264.7 cells (5 × 10^4/well) were seeded in 96-well plates and incubated for 24 h. The cells were treated with MeOH extracts and contain partition fractions in various concentrations (0, 62.5, 125, 250, 500 and 1000 μg/mL), compounds and positive control (0, 6.25, 12.5, 25, 50 and 100 μg/mL) in the presence or absence of LPS (100 ng/mL) for 24 h. After 24 h, the medium was replaced with a medium containing 0.5 mg/mL MTT solution and incubated at 37 °C for 4 h. After the end of the MTT reaction, we used 0.04 N HCl /isopropanol solution to dissolve the formazan crystals. The absorbance was measured at 570 nm using a microplate reader (Molecular Devices, LLC.). The cell viability was calculated and compared with the control group.

[2] = system: NO production by LPS stimulated in RAW264.7 cells; assay: Inhibition of NO production in LPS-stimulated RAW264.7 macrophages (Griess reagent); type: cell-based, mouse; settings: LPS-stimulated RAW264.7 cells; for IC50: Mus musculus, read-out: IC50 (inhibition of nitric oxide production)
Method: as §1, §2
The supernatant collected from cell culture and mixed with an equal volume of Griess reagent (1% sulphanilamide, 0.1% naphthylethylenediamine dihydrochloride and 5% phosphoric acid) and the absorbance value was measured at 540 nm using an ELISA plate reader.
The IC50 values for NO production were presented as mean values ± SD (standard deviations) of at least three independent experiments. The statistical significance of the differences was evaluated using Student’s t-test using IBM SPSS v.20.0 (SPSS Inc., Chicago, IL, USA). The percentage of NO production and cell viability were compared using variance analysis with GraphPad Prism 7.0 (GraphPad Software Inc., San Diego, CA, USA).

[3] = pure compounds, 6.25-100 μg/mL, 24 h, mean ± SD of three independent experiments

Compound	IC50 [2, 3]	IC50 fold less than indomethacin (positive control) ([2]; NO inhibition)	CC50 at 24 h [1]	IC50 (inhibition of nitric oxide production) [2, 3]
COC(=O)C(CO)C1CC(O)C(C)C1COC(=O)c1ccccc1 (stereo not drawn) [Compound 2, neonanin D]	> 100 µg/mL		> 100 µg/mL	
COC(=O)C1C(O)OC(=O)C2C(C)C(O)CC12 (stereo not drawn) [Compound 1, neonanin C]	> 100 µg/mL		> 100 µg/mL	
C[C@@H]1[C@H]2COC(=O)[C@@H](CO)[C@H]2C[C@@H]1O [Compound 9, alyxialactone]	> 100 µg/mL		> 100 µg/mL	
C[C@@H]1[C@H]2COC(=O)C[C@H]2C[C@@H]1O [Compound 7, isoboonein]	86.3 ± 3.45 µg/mL (≈ 507 µM)		> 100 µg/mL	
COC(=O)C1=COC[C@@H]2[C@@H](C)[C@@H](O)C[C@H]12 [Compound 6, siphonostegiol]	> 100 µg/mL		> 100 µg/mL	
COC(=O)C1COC(=O)C2C(C)C(OC3OC(=O)C4C(C)C(O)CC4C3C(=O)OC)CC12 (stereo not drawn) [Compound 4, reticunin B]	> 100 µg/mL		> 100 µg/mL	
COC(=O)C1=CNC(=O)[C@@H]2[C@@H](C)[C@@H](O)C[C@H]12 [Compound 5, strychnovoline]	> 100 µg/mL		> 100 µg/mL	
O=C(O)c1ccc(O)c(O)c1 [Compound 14, protocatechuic acid]	72.9 ± 4.97 µg/mL (≈ 473 µM)		> 100 µg/mL	
C/C=C1/C(=O)OCC[C@H]1CCO [Compound 8, floribundane B]	> 100 µg/mL		> 100 µg/mL	
COC(=O)C1=COC(O)C2C1CC(OC1OC(=O)C3C(C)C(O)CC3C1C(=O)OC)C2C (stereo not drawn) [Compound 3, reticunin A]	> 100 µg/mL		> 100 µg/mL	
(+)-pinoresinol [Compound 11]				>100 µg/mL

Second part, led by results:

IC50 [2, 3]	IC50 fold less than indomethacin (positive control) ([2]; NO inhibition)	Compound	CC50 at 24 h [1]	IC50 (inhibition of nitric oxide production) [2, 3]
> 100 µg/mL		COc1cc(C(=O)O)cc(OC)c1O [Compound 16, syringic acid]	> 100 µg/mL	
9.18 ± 1.9 µg/mL (≈ 21.9 µM)	5 fold	COc1cc([C@H]2OC[C@H]3[C@@H]2CO[C@@H]3c2cc(OC)c(O)c(OC)c2)cc(OC)c1O [Compound 10, syringaresinol]	> 100 µg/mL	
95.2 ± 1.2 µg/mL (≈ 528 µM)		O=C(O)/C=C/c1ccc(O)c(O)c1 [Compound 15, trans-caffeic acid]	> 100 µg/mL	
> 100 µg/mL		COc1cc(C(=O)CCO)cc(OC)c1O [Compound 17, 3-hydroxy-1-(4-hydroxy 3,5-dimethoxyphenyl)-1-propanone]	> 100 µg/mL	
76.2 ± 2.42 µg/mL (≈ 196 µM)		COc1cc([C@@H]2OC[C@@H]3[C@H]2CO[C@H]3c2cc(OC)c(O)c(OC)c2)ccc1O [Compound 12, (+)-medioresinol]	> 100 µg/mL	
> 100 µg/mL		COc1cc(C(=O)C(O)CO)ccc1O (stereo not drawn) [Compound 20, C-veratroylglycol]	> 100 µg/mL	
> 100 µg/mL		COc1cc(/C=C/C(=O)O)ccc1O [Compound 18, ferulic acid]	> 100 µg/mL	
46.7 ± 3.14 µg/mL (≈ 131 µM)		COc1ccc2c(c1)c(CC(=O)O)c(C)n2C(=O)c1ccc(Cl)cc1 [Indomethacin, indomethacin, reference compound]	> 100 µg/mL	
> 100 µg/mL		COc1ccc(O)c(O)c1 [Compound 13, 4-methoxycatechol]	> 100 µg/mL	
> 100 µg/mL		COC(=O)c1ccc(O)c(O)c1 [Compound 19, protocatechuic acid methyl ester]	> 100 µg/mL	
